Reference: US8828972B2, “Formulations containing alkylphosphocholines using novel negative charge carriers” (Max-Planck-Gesellschaft zur Foerderung der Wissenschaften …, priority 2004, dated 2014)

Experiments:
[1] = tested on: Cushing's and bladder tumours; assay: Treatment of cancer in dogs; assay type: in vivo
[2] = tested on: Tumour cells; assay: Sensitisation of tumour cells to radiation therapy; assay type: cell-based; details: tumour cells doped with the substance

SMILES | treatment of Cushing's and bladder tumours [1] | sensitisation to radiation therapy [2]
CCCCCCCCC=CCCCCCCCCCCCCOP(=O)([O-])OCCC[N+](C)(C)C [erucylphospho-(N,N,N-trimethyl)-propylammonium] | treated successfully | 
CCCCCCCCC=CCCCCCCCCCCCCOP(=O)([O-])OCCC[N+](C)(C)C [erufosin] |  | sensitised to radiation therapy
